We go through eight molecules from patent publication US6593322B1, “Compounds and methods for modulation of estrogen receptors” (Signal Pharmaceuticals, Inc., priority 1999, dated 2003).

Data set [1] deals with U2OS ER-Minus cells. As to the kind of experiment: IL-6 production in ER-Minus (parental) U2OS osteosarcoma cells. The class given is cell-based, human. Particulars: 24 h.
Data set [2] deals with T1, human full-length ER-α (Homo sapiens, UniProt P03372).
T1 construct: expression vectors for human full-length ER-α or ER-β; expressed in transfected cells
T1 sequence (P03372 1-595): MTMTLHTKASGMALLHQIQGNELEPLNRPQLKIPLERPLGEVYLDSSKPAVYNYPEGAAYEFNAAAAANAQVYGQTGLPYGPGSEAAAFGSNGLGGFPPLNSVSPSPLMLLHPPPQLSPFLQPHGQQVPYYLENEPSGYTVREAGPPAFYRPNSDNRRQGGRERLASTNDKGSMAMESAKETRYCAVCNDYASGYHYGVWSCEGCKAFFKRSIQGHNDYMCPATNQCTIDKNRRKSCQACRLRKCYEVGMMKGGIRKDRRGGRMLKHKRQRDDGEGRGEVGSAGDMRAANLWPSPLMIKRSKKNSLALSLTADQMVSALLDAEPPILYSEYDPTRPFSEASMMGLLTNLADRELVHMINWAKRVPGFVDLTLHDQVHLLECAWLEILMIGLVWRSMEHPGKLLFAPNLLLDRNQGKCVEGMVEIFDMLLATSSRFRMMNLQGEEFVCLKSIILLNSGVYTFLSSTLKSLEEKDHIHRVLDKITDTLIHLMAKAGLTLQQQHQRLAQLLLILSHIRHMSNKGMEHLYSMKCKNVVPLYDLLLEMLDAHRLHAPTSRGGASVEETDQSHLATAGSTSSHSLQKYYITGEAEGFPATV
As to the kind of experiment: IL-6 production in U2OS osteosarcoma cells stably transfected with ER-α. The class given is cell-based.

The target in data set [3] is T2, human full-length ER-β (Homo sapiens, UniProt Q92731).
T2 construct: expression vectors for human full-length ER-α or ER-β; expressed in transfected cells
The experiment in a line: IL-6 production in U2OS osteosarcoma cells stably transfected with ER-β. The class given is cell-based.

Where [4] appears, read: IL-6 after 10 ng/ml IL-1β and 10 ng/ml TNF-α, 50% inhibition relative to DMSO control.

Structures can show the parent of a compound that is named as a salt. A value given as a limit tells only on which side of the number the result lay.

T2 sequence (Q92731 whole entry): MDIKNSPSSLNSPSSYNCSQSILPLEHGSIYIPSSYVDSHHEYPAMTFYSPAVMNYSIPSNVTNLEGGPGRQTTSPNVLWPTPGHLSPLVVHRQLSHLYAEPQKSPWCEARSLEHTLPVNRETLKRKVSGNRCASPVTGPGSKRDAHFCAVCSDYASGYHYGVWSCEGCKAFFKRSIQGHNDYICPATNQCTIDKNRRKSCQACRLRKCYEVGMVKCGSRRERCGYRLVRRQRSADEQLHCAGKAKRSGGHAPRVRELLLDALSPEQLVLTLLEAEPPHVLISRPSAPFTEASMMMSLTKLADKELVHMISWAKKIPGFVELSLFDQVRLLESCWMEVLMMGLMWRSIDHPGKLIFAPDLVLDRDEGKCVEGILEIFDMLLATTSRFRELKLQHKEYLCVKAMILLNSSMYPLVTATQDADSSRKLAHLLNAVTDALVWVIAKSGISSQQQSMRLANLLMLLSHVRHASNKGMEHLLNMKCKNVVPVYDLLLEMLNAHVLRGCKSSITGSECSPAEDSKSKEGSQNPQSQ

In the case of `C[C@]12CC[C@@H]3c4ccc(O)cc4CC[C@H]3[C@@H]1CC[C@@H]2O` [17-β-Estradiol], the IC50 in data set [1] (setting [4]) is more than 1 µM.
Take `CCN(CCOc1ccc(CC2c3ccc(O)cc3CCN2c2ccc(F)cc2)cc1)Cc1ccccc1` (stereo not shown) [Example 21, 1-{4-[(2-(N-Benzyl-N-ethyl)amino)ethoxy]benzyl}-2-(4-fluorophenyl)-1,2,3,4-tetrahydroisoquinolin-6-ol]: the melting point is 47 to 49 °C.
Regarding `Oc1ccc2c(c1)CCN(c1ccccc1)C2Cc1ccc(Br)cc1` (stereo not shown) [Example 2, 1-(4-Bromobenzyl)-2-phenyl-1,2,3,4-tetrahydroisoquinolin-6-ol], the IC50 was more than 1 µM in data set [2]; 0.107 µM in data set [3]; more than 1 µM in data set [1] (Homo sapiens, U2OS).
Take `Oc1ccc2c(c1)CCN(c1ccc(F)cc1)C2c1ccc(OCCN2CCCCC2)cc1` (stereo not shown) [Compound A, reference compound]: the IC50 in data set [2] was 0.001 µM; in data set [3], more than 10 µM; in data set [1] (Homo sapiens, U2OS) it was more than 10 µM.
On to `Oc1ccc2c(c1)CCN(c1ccc(F)cc1)C2Cc1ccc(OCCN2CCCCC2)cc1` (stereo not shown) [Example 5], for which the IC50 in data set [2] is 2.01 µM; in data set [3], 0.285 µM; in data set [1] (Homo sapiens, U2OS), more than 10 µM.
For `O=C(c1ccc(OCCN2CCCCC2)cc1)c1c(-c2ccc(O)cc2)sc2cc(O)ccc12` [Raloxifene Hydrochloride], the IC50 in data set [1] (Homo sapiens, U2OS) is more than 1 µM.
Take `Oc1ccc2c(c1)CCCN(c1ccc(F)cc1)C2Cc1ccc(OCCN2CCCCC2)cc1` (stereo not shown) [Example 8]: the IC50 was 10 µM in data set [2]; 5 µM in data set [3]; more than 10 µM in data set [1] (Homo sapiens, U2OS).
With 4-Hydroxy-Tamoxifen, the IC50 in data set [1] (setting [4]) was more than 1 µM.

What is called IC50 is the point on the concentration scale where inhibition reaches its midpoint. By melting point is commonly meant the temperature of the solid-liquid transition.
